Patent US11648254B2 (Kumquat Biosciences Inc., priority 2021, dated 2023)
Read-outs that look alike come from different tables or passages of the source.

Key:
[1] = tested on: MIA PaCa-2 cells (K-Ras G12C); assay: Ras-SOS cellular growth inhibition assay (CellTiter-Glo, 3D); type: cell-based; details: Homo sapiens
In short: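 Growth read by CellTiter-Glo luminescence about 5 days after dosing with 3-fold dilutions (9 points), added one day post-seeding. Cells: MIA PaCa-2, 3D culture on ultra-low-attachment surface, medium DMEM/Ham's F12 plus 10% FCS and 2.5% horse serum; IC50 by four-parameter fit.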

[2] = In vitro plasma protein binding (PPB); type: in vitro ADME; details: percentage of free/unbound compound
[3] = tested on: NCI-H1975 cells (EGFR T790M L858R); assay: EGFR-SOS cellular inhibition assay (CellTiter-Glo, 3D); type: cell-based; details: Homo sapiens
[4] = molecular target: SOS1 (Homo sapiens (Human), UniProt Q07889); assay: Ras-SOS interaction assay (HTRF); type: biochemical
Sequence of SOS1 (Q07889 564-1049): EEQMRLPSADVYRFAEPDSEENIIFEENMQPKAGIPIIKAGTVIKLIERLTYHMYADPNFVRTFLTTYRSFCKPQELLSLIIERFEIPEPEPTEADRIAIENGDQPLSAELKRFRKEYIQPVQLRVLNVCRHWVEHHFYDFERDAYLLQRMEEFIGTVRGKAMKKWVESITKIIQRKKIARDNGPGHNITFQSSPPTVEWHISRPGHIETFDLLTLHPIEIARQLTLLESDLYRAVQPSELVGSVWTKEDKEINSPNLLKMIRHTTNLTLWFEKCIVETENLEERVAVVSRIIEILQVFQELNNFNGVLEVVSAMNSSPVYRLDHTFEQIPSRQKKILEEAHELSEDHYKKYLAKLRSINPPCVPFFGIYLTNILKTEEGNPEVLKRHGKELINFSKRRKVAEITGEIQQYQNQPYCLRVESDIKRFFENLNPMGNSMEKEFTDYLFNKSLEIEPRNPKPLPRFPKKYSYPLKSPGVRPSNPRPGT

[5] = Metabolic (microsomal) stability assay; type: in vitro ADME; details: mouse liver microsomes, T1/2; read-out: DMPK-invitro-metabolic Stability (Mouse T1/2)
Source text: Example 12: Metabolic (Microsomal) Stability Assay

[6] = MIA PaCa-2, 120 h, MIA PaCa-2, 3D proliferation, about 5 days, read-out: Bio-Cell-Prolif-3D (MiaPaca2 IC50)
[7] = MIA PaCa-2, MIA PaCa-2, read-out: IC50 in inhibiting MIA PaCa-2 cell growth
[8] = 120 h, NCI-H1975, 3D proliferation, about 5 days, read-out: Bio-Cell-Prolif-3D (H1975 IC50)
[9] = NCI-H1975, EGFR T790M L858R, read-out: IC50 in inhibiting growth of NCI-H1975 cell line
[10] = K-RasG13D utilized, read-out: IC50 inhibition of SOS
[11] = K-RasG13D, read-out: IC50 value against SOS1

Compound | IC50 [1, 6] [nM] | IC50 [1, 7] [nM] | DMPK-invitro-PPB (Mouse Unbound) [%] [2] [%] | IC50 [3, 8] [nM] | IC50 [3, 9] [nM] | IC50 [4, 10] [nM] | IC50 [4, 11] [nM] | half-life [5] [min]
COc1nc2nc(C)nc(N[C@H](C)c3cccc(C(F)(F)C(C)(C)O)c3)c2cc1C1(C#N)CC1 [Compound 175, (R)-1-(4-((1-(3-(1,1-difluoro-2-hydroxy-2-methylpropyl)phenyl)ethyl)amino)-7-methoxy-2-methylpyrido[2,3-d]pyrimidin-6-yl)cyclopropane-1-carbonitrile] | ≤ 1000 | < 500 | 0.11 | ≤ 1000 | < 500 | < 100 | < 50 | 198
COc1nc2nc(C)nc(N[C@H](C)c3cccc(C(F)(F)C(C)(C)O)c3F)c2cc1C1(C#N)CC1 [Compound 207, (R)-1-(4-((1-(3-(1,1-difluoro-2-hydroxy-2-methylpropyl)-2-fluorophenyl)ethyl)amino)-7-methoxy-2-methylpyrido[2,3-d]pyrimidin-6-yl)cyclopropane-1-carbonitrile] | ≤ 1000 | – | 0.06 | ≤ 1000 | < 500 | < 100 | < 50 | > 200
Cc1nc(N[C@H](C)c2cccc(C(F)(F)[C@H](C)O)c2)c2cc(C3(C#N)CC3)c(Cl)nc2n1 [Compound 220, 1-(7-chloro-4-(((R)-1-(3-((S)-1,1-difluoro-2-hydroxypropyl)phenyl)ethyl)amino)-2-methylpyrido[2,3-d]pyrimidin-6-yl)cyclopropane-1-carbonitrile] | ≤ 1000 | < 500 | – | ≤ 1000 | < 500 | < 100 | < 50 | 100
Cc1nc(N[C@H](C)c2cccc(C(F)F)c2F)c2cc(C3(C#N)CC3)c(OC3CN(C)C3)nc2n1 [Compound 234, (R)-1-(4-((1-(3-(difluoromethyl)-2-fluorophenyl)ethyl)amino)-2-methyl-7-((1-methylazetidin-3-yl)oxy)pyrido[2,3-d]pyrimidin-6-yl)cyclopropane-1-carbonitrile] | ≤ 1000 | – | – | ≤ 1000 | < 500 | < 100 | < 50 | 42.2
COc1nc2nc(C)nc(N[C@H](C)c3cccc(C(F)(F)[C@H](C)O)c3F)c2cc1C1(C#N)CC1 [Compound 256, 1-(4-(((R)-1-(3-((S)-1,1-difluoro-2-hydroxypropyl)-2-fluorophenyl)ethyl)amino)-7-methoxy-2-methylpyrido[2,3-d]pyrimidin-6-yl)cyclopropane-1-carbonitrile] | ≤ 1000 | < 500 | 0.77 | ≤ 1000 | < 500 | < 100 | < 50 | 37.2
Cc1nc(N[C@H](C)c2cccc(C(F)F)c2F)c2cc(C3(C#N)CC3)c(O[C@@H]3CCOC3)nc2n1 [Compound 298, 1-(4-(((R)-1-(3-(difluoromethyl)-2-fluorophenyl)ethyl)amino)-2-methyl-7-(((R)-tetrahydrofuran-3-yl)oxy)pyrido[2,3-d]pyrimidin-6-yl)cyclopropane-1-carbonitrile] | ≤ 1000 | – | – | ≤ 1000 | – | 100 to 1000 | – | 1.5
Cc1nc(N[C@H](C)c2cccc(C(F)(F)F)c2F)c2cc(C3(C#N)CC3)c(Cl)nc2n1 [Compound 300, (R)-1-(7-chloro-4-((1-(2-fluoro-3-(trifluoromethyl)phenyl)ethyl)amino)-2-methylpyrido[2,3-d]pyrimidin-6-yl)cyclopropane-1-carbonitrile] | ≤ 1000 | – | 0.47 | ≤ 1000 | – | < 100 | – | 70.6
COc1nc2ncnc(N[C@H](C)c3cccc(C(F)(F)[C@H](C)O)c3F)c2cc1C1(C#N)CC1 [Compound 327, 1-(4-(((R)-1-(3-((S)-1,1-difluoro-2-hydroxypropyl)-2-fluorophenyl)ethyl)amino)-7-methoxypyrido[2,3-d]pyrimidin-6-yl)cyclopropane-1-carbonitrile] | ≤ 1000 | < 500 | 2.34 | ≤ 1000 | < 500 | < 100 | < 50 | 131
Cc1nc(N[C@H](C)c2cccc(C(F)F)c2F)c2cc(C3(C#N)CC3)c(Cl)nc2n1 [Compound 352, (R)-1-(7-chloro-4-((1-(3-(difluoromethyl)-2-fluorophenyl)ethyl)amino)-2-methylpyrido[2,3-d]pyrimidin-6-yl)cyclopropane-1-carbonitrile] | ≤ 1000 | < 500 | – | ≤ 1000 | < 500 | < 100 | < 50 | 31
C[C@@H](Nc1ncnc2nc(Cl)c(C3(C#N)CC3)cc12)c1cccc(C(F)(F)C(C)(C)O)c1F [Compound 361, (R)-1-(7-chloro-4-((1-(3-(1,1-difluoro-2-hydroxy-2-methylpropyl)-2-fluorophenyl)ethyl)amino)pyrido[2,3-d]pyrimidin-6-yl)cyclopropane-1-carbonitrile] | 1000 to 10000 | – | – | ≤ 1000 | < 500 | < 100 | < 50 | > 200
C[C@@H](Nc1ncnc2nc(Cl)c(C3(C#N)CC3)cc12)c1cccc(C(F)(F)CO)c1F [Compound 362, (R)-1-(7-chloro-4-((1-(3-(1,1-difluoro-2-hydroxyethyl)-2-fluorophenyl)ethyl)amino)pyrido[2,3-d]pyrimidin-6-yl)cyclopropane-1-carbonitrile] | 1000 to 10000 | – | – | ≤ 1000 | < 500 | < 100 | < 50 | 49
C[C@@H](Nc1ncnc2nc(Cl)c(C3(C#N)CC3)cc12)c1cccc(C(F)(F)C(C)(C)O)c1 [Compound 363, (R)-1-(7-chloro-4-((1-(3-(1,1-difluoro-2-hydroxy-2-methylpropyl)phenyl)ethyl)amino)pyrido [2,3-d]pyrimidin-6-yl)cyclopropane-1-carbonitrile] | ≤ 1000 | < 500 | – | ≤ 1000 | < 500 | < 100 | < 50 | > 200
C[C@@H](Nc1ncnc2nc(Cl)c(C3(C#N)CC3)cc12)c1cccc(C(F)(F)[C@@H](C)O)c1F [Compound 365, 1-(7-chloro-4-(((R)-1-(3-((R)-1,1-difluoro-2-hydroxypropyl)-2-fluorophenyl)ethyl)amino)pyrido [2,3-d]pyrimidin-6-yl)cyclopropane-1-carbonitrile] | ≤ 1000 | – | – | ≤ 1000 | < 500 | < 100 | < 50 | > 200
C[C@@H](Nc1ncnc2nc(OC3COC3)c(C3(C#N)CC3)cc12)c1cccc(C(F)F)c1F [Compound 400, (R)-1-(4-((1-(3-(difluoromethyl)-2-fluorophenyl)ethyl)amino)-7-(oxetan-3-yloxy)pyrido[2,3-d]pyrimidin-6-yl)cyclopropane-1-carbonitrile] | ≤ 1000 | < 500 | – | ≤ 1000 | – | 100 to 1000 | – | 29.4
Cc1nc(N[C@H](C)c2cccc(C(F)F)c2F)c2cc(C3(C#N)CC3)c(OC3COC3)nc2n1 [Compound 402, (R)-1-(4-((1-(3-(difluoromethyl)-2-fluorophenyl)ethyl)amino)-2-methyl-7-(oxetan-3-yloxy)pyrido[2,3-d]pyrimidin-6-yl)cyclopropane-1-carbonitrile] | ≤ 1000 | < 500 | – | ≤ 1000 | – | < 100 | – | 19.3
C[C@@H](Nc1ncnc2nc(OC3CN(C)C3)c(C3(C#N)CC3)cc12)c1cccc(C(F)F)c1F [Compound 405, (R)-1-(4-((1-(3-(difluoromethyl)-2-fluorophenyl)ethyl)amino)-7-((1-methylazetidin-3-yl)oxy)pyrido[2,3-d]pyrimidin-6-yl)cyclopropane-1-carbonitrile] | ≤ 1000 | – | – | ≤ 1000 | < 500 | < 100 | < 50 | > 200
C[C@@H](Nc1ncnc2nc(O[C@@H]3CCOC3)c(C3(C#N)CC3)cc12)c1cccc(C(F)F)c1F [Compound 409, 1-(4-(((R)-1-(3-(difluoromethyl)-2-fluorophenyl)ethyl)amino)-7-(((R)-tetrahydrofuran-3-yl)oxy)pyrido[2,3-d]pyrimidin-6-yl)cyclopropane-1-carbonitrile] | ≤ 1000 | – | – | ≤ 1000 | < 500 | 100 to 1000 | – | 5.6
C[C@H](O)C(F)(F)c1cccc([C@@H](C)Nc2ncnc3nc(Cl)c(C4(C#N)CC4)cc23)c1F [Compound 417, 1-(7-chloro-4-(((R)-1-(3-((S)-1,1-difluoro-2-hydroxypropyl)-2-fluorophenyl)ethyl)amino)pyrido[2,3-d]pyrimidin-6-yl)cyclopropane-1-carbonitrile] | ≤ 1000 | – | – | ≤ 1000 | < 500 | < 100 | < 50 | > 200
